Like-named read-outs stand apart in the source and are kept apart here. Each block holds one compound with its values, some of them ahead of it.
Columns and labels:
[1] = tested on: Pectobacterium atrosepticum 1043; experiment: Bactericidal activity, agar diffusion, P. atrosepticum; type: cell-based; conditions: Pectobacterium atrosepticum, 1043, 2 mM/L
From the text: (§1) Plant pathogenic bacterial strains Micrococcus luteus B-109, Pectobacterium atrosepticum 1043, Pectobacterium carotovorum subsp. carotovorum MI, Pseudomonas fluorescens EL-2.1, and Xanthomonas campestris B-610 and fungal strain Fusarium oxysporum IBPPM 543 were obtained from the specialized scientific culture collection of IBPPM RAS (WFCC no. 975, WDCM no. 1021) (CM IBPPM). Pathogenic fungus Phytophthora cactorum VKM F-985 provided by the All-Russian Collection of Microorganisms (VKM) and deposited at A.E. Favorsky Irkutsk Institute of Chemistry, SB RAS, was also used as test organism. Bacteria M. luteus, P. carotovorum subsp. carotovorum, P. atrosepticum, and Ps. fluorescens were grown in meat-peptone medium (BP), and X. campestris was grown in the medium with glucose, yeast extract, and calcium carbonate (GYCa). Solid media contained Bacto agar (18 g/L); pH was adjusted to 7.2-7.4. All bacterial cultures were grown at 28°C. The mycelial cultures of F. oxysporum and P. cactorum were grown on a glucose-peptone-yeast (GPY) nutrient medium at 27 °C. For inoculum preparation, both fungal strains were initially grown on the agar GPY in Petri dishes and then transferred into the seed medium by punching out 5 mm of the agar plate culture with a self-designed cutter.
Antibacterial and antifungal activities of the compounds were explored using the agar diffusion method and the technique of a phytopathogen radial growth inhibition. Method of diffusion in agar (measuring the diameter of growth inhibition zones) was used for determining the bactericidal activity. The 6-mm wells were made in ager medium (GYCa for Xanthomonas campestris or BP for other bacteria). Bacterial suspensions were distributed over the agar surface, and the tested compound's solution (150 μl) was added to each well. The width of growth inhibition zones around the wells was determined after incubation for 36-40 h.
(§2) The solutions of tested compounds were prepared with a concentration of 2 mmol/l (stock solution). For comparison, test compounds were also commonly applied disinfecting agents and antibiotics.

[2] = tested on: methicillin-resistant strains of S. aureus (MRSA-1); experiment: Antimicrobial activity, serial dilution (MIC/MBC), MRSA-1; type: cell-based; conditions: Staphylococcus aureus
Method: (§3) The antimicrobial activity of the test compounds was determined by the serial dilution technique in Muller Hinton Broth 2 and in Sabouradu broth for fungi. The cultures used for testing included Gram-positive bacteria: Staphylococcus aureus ATCC 6538P FDA 209P, Bacillus cereus ATCC 10702 NCTC 8035, Enterococcus faecalis ATCC 29212; Gram-negative bacteria: Escherichia coli ATCC 25922, Pseudomonas aeruginosa ATCC 9027, and fungi: Trichophyton mentagrophytes var. gypseum 1773, and Candida albicans ATCC 10231; methicillin-resistant strains of S. aureus (MRSA) was obtained from hospital patients with chronic tonsillitis in the Republican Clinical Hospital (Kazan, Russia). The bacterial load was 3.0 × 10^5 cfu/ml. The fungi load was 2.0 × 10^3 cfu/ml. The results were recorded every 24 h for 5-7 days. Cultures were incubated at 37 °C. The experiment was repeated three times. […] The minimum inhibitory concentration (MIC) was defined as the minimum concentration of a compound that inhibits the growth of the corresponding test microorganism. The growth of bacteria, as well as the absence of the growth due to the bacteriostatic action of compounds, were recorded.
(§4) Synthesized compounds were further evaluated for antimicrobial activity against test microorganisms: Staphylococcus aureus ATCC 209p (Sa), Bacillus cereus ATCC 8035 (Bc), Escherichia coli CDC F-50 (Ec), Enterococcus faecalis (Ef), Pseudomonas aeruginosa ATCC 9027, Aspergillus niger BKMF-1119, Trichophyton mentagrophytes var. gypseum 1773, and Candida albicans 855-653 including methicillin-resistant strains of S. aureus (MRSA 1 and MRSA 2). The minimum inhibitory (MIC) and minimum bactericidal (MBC) concentrations of ammonium salts were determined against these pathogens (Table 1). Due to the lack of activity of compounds 3a-g against Gram-negative bacterial strains and some fungi, the corresponding data are not shown.

[3] = tested on: methicillin-resistant strains of S. aureus (MRSA-2); experiment: Antimicrobial activity, serial dilution (MIC/MBC), MRSA-2; type: cell-based; conditions: Staphylococcus aureus
Method: as §3, §4

[4] = tested on: Fusarium oxysporum IBPPM 543; experiment: Fungicidal activity, radial growth inhibition, F. oxysporum; type: cell-based; conditions: for EC50: Fusarium oxysporum, IBPPM543, 168 h, day 7, EC50 = 50C/I, read-out: EC50, μg/mL at day 7
From the text: as §1
For the fungicidal activity analysis, radial growth (colony diameters) of the fungi on a solid medium in the absence and in the presence of the compounds 3a,c-g solutions at various concentrations were compared. The method consisted of the following: sterile, melted and then cooled to about 60°C GPY agar medium (20.0 ml) was mixed with the precisely measured volumes of the solutions under question, and poured into a sterile Petri dish (90 mm i.d.). After solidification of GPY agar, the media were inoculated by the fungus using 10-day-old cultures of F. oxysporum or P. cactorum. The inoculation was done by transferring a 5-mm (i.d.) GPY-agar block covered with mycelium to the center of the Petri dish followed by incubation in a thermostat at 27°C. The fungicidal effect was scored by the size of mycelium colony on a Petri dish compared to the control without fungicidal admixtures to GPY agar. Each treatment was performed in at least four replicates in two independent experiments. The observation period ended when the control Petri dish was filled with mycelium (usually after 12 days). The inhibition of the phytopathogen colony growth by the compounds 3a,c-g or fludioxonil solutions was calculated as a percentage by which the mycelium radial propagation was decreased compared to the unaffected control, the latter was taken as 100 % of growth (or zero percent of inhibition). The EC50 value was calculated as the compound concentration at which the radial growth of the fungus colony was decreased by 50 % relative to the non-fungicidal control, according to the formula EC50 = 50C/I based on the approach developed e.g., in [34, 35].
as §2

[5] = tested on: MRSA-1 and MRSA-2 compared to erythrocytes and hepatocytes; experiment: Selectivity index (HC50 or IC50 / MIC); parameters: species or system Staphylococcus aureus; conditions: resistant strains MRSA-1 and MRSA-2 compared to erythrocytes and hepatocytes
Method: The selectivity of compounds for microbial cells is an important criterion for assessing the cytotoxic effect. This indicator is characterized by the value of the selectivity index (SI), which for the leading compounds 3b, 3c, and 3d was calculated as the ratio between the HC50 value for erythrocytes (IC50 for eukaryotic cells) and the MIC value for bacterial cells (Fig. 4). […] Its selectivity index was 3–8 times higher than that of compounds 3b and 3c.

[6] = 150 μl per well, 36-40 h, read-out: width of the inhibition zone
[7] = read-out: Inhibition zone width (mm), not less
[8] = C 6.30 μg/mL, age of the fungus 3 days
[9] = C 6.30 μg/mL, age of the fungus 5 days
[10] = C 6.30 μg/mL, age of the fungus 7 days
[11] = C 6.30 μg/mL, age of the fungus 9 days
[12] = C 12.60 μg/mL, age of the fungus 3 days
[13] = C 12.60 μg/mL, age of the fungus 5 days
[14] = C 12.60 μg/mL, age of the fungus 7 days
[15] = C 12.60 μg/mL, age of the fungus 9 days
[16] = C 25.20 μg/mL, age of the fungus 3 days
[17] = C 25.20 μg/mL, age of the fungus 5 days
[18] = C 25.20 μg/mL, age of the fungus 7 days
[19] = C 25.20 μg/mL, age of the fungus 9 days
[20] = C 37.80 μg/mL, age of the fungus 3 days
[21] = C 37.80 μg/mL, age of the fungus 5 days
[22] = C 37.80 μg/mL, age of the fungus 7 days
[23] = C 37.80 μg/mL, age of the fungus 9 days

MIC [2]: 49.7 ± 3.9 µM
MIC [3]: 24.8 ± 2.2 µM
SMILES: CCc1cccc2c1N(Cc1cc(C(C)(C)C)c(O)c(C(C)(C)C)c1)C(=O)/C2=N\NC(=O)C[N+](CC)(CC)CC [Compound 3c, 2-(2-(1-(3,5-Di-tert-butyl-4-hydroxybenzyl)-7-ethyl-2-oxoindolin-3-ylidene)hydrazinyl)-N,N,N-triethyl-2-oxoethanammonium bromide]
zone of inhibition at 2000 µM [1, 6]: 9 mm
zone of inhibition at 2000 µM [1, 7]: ≥ 9 mm
MBC [2]: 99.3 µM
MBC [3]: 99.3 µM
Inhibition value, I (%) [4, 8]: 2%
Inhibition value, I (%) [4, 9]: 11%
Inhibition value, I (%) [4, 10]: 30%
Inhibition value, I (%) [4, 11]: 17%
Inhibition value, I (%) [4, 12]: 24%
Inhibition value, I (%) [4, 13]: 26%
Inhibition value, I (%) [4, 14]: 33%
Inhibition value, I (%) [4, 15]: 23%
Inhibition value, I (%) [4, 16]: 31%
Inhibition value, I (%) [4, 17]: 33%
Inhibition value, I (%) [4, 18]: 47%
Inhibition value, I (%) [4, 19]: 27%
Inhibition value, I (%) [4, 20]: 44%
Inhibition value, I (%) [4, 21]: 42%
Inhibition value, I (%) [4, 22]: 59%
Inhibition value, I (%) [4, 23]: 38%
EC50 [4]: 10.5 µg/mL

MIC [2]: 6.2 ± 0.5 µM
MIC [3]: 6.2 ± 0.5 µM
SMILES: CC[N+](CC)(CC)CC(=O)N/N=C1\C(=O)N(Cc2cc(C(C)(C)C)c(O)c(C(C)(C)C)c2)c2c1ccc(C)c2C [Compound 3d, 2-(2-(1-(3,5-Di-tert-butyl-4-hydroxybenzyl)-6,7-dimethyl-2-oxoindolin-3-ylidene)hydrazinyl)-N,N,N-triethyl-2-oxoethanammonium bromide]
zone of inhibition at 2000 µM [1, 6]: 8 mm
zone of inhibition at 2000 µM [1, 7]: ≥ 8 mm
MBC [2]: 12.4 µM
MBC [3]: 49.6 µM
selectivity index, times higher than that of compounds 3b and 3c [5]: 3–8 times
Inhibition value, I (%) [4, 8]: 0%
Inhibition value, I (%) [4, 9]: 5%
Inhibition value, I (%) [4, 10]: 5%
Inhibition value, I (%) [4, 11]: 0%
Inhibition value, I (%) [4, 12]: 8%
Inhibition value, I (%) [4, 13]: 12%
Inhibition value, I (%) [4, 14]: 13%
Inhibition value, I (%) [4, 15]: 2%
Inhibition value, I (%) [4, 16]: 17%
Inhibition value, I (%) [4, 17]: 15%
Inhibition value, I (%) [4, 18]: 20%
Inhibition value, I (%) [4, 19]: 8%
Inhibition value, I (%) [4, 20]: 22%
Inhibition value, I (%) [4, 21]: 18%
Inhibition value, I (%) [4, 22]: 24%
Inhibition value, I (%) [4, 23]: 9%
EC50 [4]: 48.5 µg/mL
